Holding throughout (assay): NCI tumour cell line growth inhibition, 48 h
In experiment [1] the test system is HCC-2998 colon.
For experiment [2], the system named is CCRF-CEM leukemia.
Experiment [3] relates to RPMI-8226 leukemia.
The test system of experiment [4] is U251 CNS.
In experiment [5] the test system is UACC-62 melanoma.
In experiment [6] the test system is COLO 205 colon.
The test system of experiment [7] is M14 melanoma.
For experiment [8], the system named is HL-60(TB) leukemia.
In experiment [9] the test system is SN12C renal.
Experiment [10] deals with OVCAR-4 ovarian.

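Grown in 96-well plates, cells were treated for 48 hours with each compound at five concentrations. Insufficient inhibition: endpoint recorded as highest concentration tested. GI50 marks 50% less growth. TGI: total growth inhibition.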

The values below come from PubChem BioAssay (NCI).

Turning to `CCCCCCCC(=O)SCC/C=C/[C@@H]1CC(=O)NCc2cccc(n2)CN(Cc2ccc(Cl)cc2)CC(=O)N[C@@H](C(C)C)C(=O)O1`, the GI50 is 13.8 µM in experiment [1]; 4.56 µM in experiment [2]; 46.4 µM in [3]; 12.6 µM in experiment [4]; 5.85 µM in [5]; 17.6 µM in [6]. The GI50 was 9.1 µM in [7], 23.1 µM in experiment [8], 22.8 µM in experiment [9] and 21.7 µM in experiment [10]. The TGI is 43.7 µM in experiment [1]; over 100 µM in experiment [2]; over 100 µM in experiment [3]; 35.8 µM in experiment [4]; 26.5 µM in experiment [5]; 42.9 µM in [6]. The TGI in [7], in experiment [8], in experiment [9] and in [10] was over 100 µM throughout.

Take `S=c1sc2ccccc2n1CN1CCN(Cc2ccccc2)CC1`: the TGI in [1], in experiment [2], in experiment [3], in [4], in experiment [5] and in experiment [6] was over 100 µM each time. In addition, the TGI in experiment [7], in [8], in [9] and in experiment [10] was over 100 µM in each case.

In the case of `O=C(/C=C(\O)C(=O)O)/C=C(\O)c1ccc(Cl)cc1`, the TGI in experiment [1], in experiment [2], in [3], in experiment [4], in experiment [5] and in [6] was over 100 µM in each case. Also, the TGI in experiment [7], in [8], in [9] and in experiment [10] was over 100 µM in each case.

Consider `CCOC(=O)C(=C=Cc1cccs1)C(=O)c1ccccc1`, for which the TGI is 31.2 µM in experiment [1]; over 100 µM in experiment [2]; 44.5 µM in experiment [3]; 31.3 µM in experiment [4]; 30.3 µM in experiment [5]; 31.4 µM in [6]. Also, the TGI in [7] turned out to be 28.2 µM; in experiment [8] it was 80.9 µM; in experiment [9] it was 29.3 µM; in [10], 39.4 µM.

As for `Cc1cc(C)cc(NC(=O)CCC(=O)C2CCC/C2=N\NC(=O)C(=O)NN)c1` (stereo not given), the TGI in [1], in [2], in [3], in experiment [4], in experiment [5] and in experiment [6] was over 100 µM throughout. Besides, the TGI in experiment [7], in experiment [8], in experiment [9] and in experiment [10] was over 100 µM each time.

Take `N=C(N)c1ccc(-c2ccc(-c3ccco3)o2)cc1`: the GI50 in experiment [1] was 1.85 µM; in experiment [2], 3.11 µM; in experiment [3], 2.51 µM; in experiment [4], 2.92 µM; in experiment [5], 1.82 µM; in experiment [6], 1.78 µM. For the same molecule, the GI50 in [7] is 1.9 µM; in experiment [8] it was 2.19 µM; in [9], 5.97 µM; in [10], 6.42 µM. Moreover, the TGI in [1] came out at 3.42 µM; in [2], 15.2 µM; in experiment [3], 7.52 µM; in [4], 11.8 µM; in [5] it was 3.9 µM; in experiment [6] it was 3.48 µM. In addition, the TGI in [7] was 3.77 µM; in experiment [8], 5.53 µM; in experiment [9], 21.2 µM; in experiment [10], 24.1 µM.

In the case of `COC(=O)c1nc(N)[nH]c(=O)c1-c1ccc(Cl)cc1`, the TGI in experiment [1], in [2], in experiment [3], in experiment [4], in experiment [5] and in [6] was over 100 µM in each case. Also, the TGI in [7], in experiment [8], in [9] and in experiment [10] was over 100 µM in each case.

Take `CC(=O)OC1CC[C@@]2(C)C(CC(OC3OC(CO)C(O)C(O)C3O)[C@]3(C)C2CCC24CC23CC[C@H]4C(C)CC(O)[C@@H](O)C(C)(C)O)C1(C)C` (stereo not given in full): the TGI stood at 25.5 µM in experiment [1]; 25.7 µM in [2]; 24.8 µM in experiment [3]; 17.4 µM in [4]; 16.6 µM in experiment [5]; 17.1 µM in [6]. The TGI in [7] is 22.6 µM; in [8], 24.9 µM; in [9] it was 30.7 µM; in [10], over 50 µM.
